Active and inactive are the calls of the source. No cut-off for these calls is given here.

One assay deals with Mus musculus. The assay can be described thus: Compound was tested for inhibitory activity in oral mouse cholesterol biosynthesis assay at the dose of 24 mg/Kg; NA means not active. The assay is classed as functional, organism-based.
As to `C=C(CCC12OC(C(=O)OCCC(C)C)C(O)(C(=O)O)C(C(=O)OC)(O1)[C@H](OC(=O)/C=C/[C@@H](C)C[C@@H](C)CC)[C@H]2O)[C@@H](OC(C)=O)[C@H](C)Cc1ccccc1` (some centres undefined), the inhibition entry is “inactive”.
On to `C=C(CCC12OC(C(=O)OCCC(C)C)C(O)(C(=O)OCC(=O)OC(C)(C)C)C(C(=O)O)(O1)[C@H](OC(=O)/C=C/[C@@H](C)C[C@@H](C)CC)[C@H]2O)[C@@H](OC(C)=O)[C@H](C)Cc1ccccc1` (some centres undefined), for which the inhibition entry is “inactive”.
Take `C=CCOC(=O)C12OC(CCC(=C)[C@@H](OC(C)=O)[C@H](C)Cc3ccccc3)(OC(C(=O)OCCC(C)C)C1(O)C(=O)O)[C@H](O)[C@H]2OC(=O)/C=C/[C@@H](C)C[C@@H](C)CC` (some centres undefined): the inhibition result was “inactive”.
On the same count and under the same terms, under `C=C(CCC12OC(C(=O)OCCC(C)C)C(O)(C(=O)O)C(C(=O)OCc3ccccc3)(O1)[C@H](OC(=O)/C=C/[C@@H](C)C[C@@H](C)CC)[C@H]2O)[C@@H](OC(C)=O)[C@H](C)Cc1ccccc1` (some centres undefined) stands “inactive”.

For another assay, the system named is Mus musculus. Nature of the assay: Compound was tested for inhibitory activity in oral mouse cholesterol biosynthesis assay at the dose of 40 mg/Kg. The class given is functional.
As for `C=C(CCC12OC(C(=O)OCCC(C)C)C(O)(C(=O)O)C(C(=O)O)(O1)[C@H](OC(=O)/C=C/[C@@H](C)C[C@@H](C)CC)[C@H]2O)[C@@H](OC(C)=O)[C@H](C)Cc1ccccc1` (some centres undefined), at 40 mg/kg the inhibition in vivo was 61%.

A further assay deals with Mus musculus. Nature of the assay: Compound was tested for inhibitory activity in oral mouse cholesterol biosynthesis assay at the dose of 6 mg/Kg. The class given is functional.
On to `C=C(CCC12OC(C(=O)OCCC(C)C)C(O)(C(=O)O)C(C(=O)OCOC(C)=O)(O1)[C@H](OC(=O)/C=C/[C@@H](C)C[C@@H](C)CC)[C@H]2O)[C@@H](OC(C)=O)[C@H](C)Cc1ccccc1` (some centres undefined), for which the inhibition in vivo – broadly, the percentage by which the read-out fell short of the control – at 6 mg/kg is 13%.

Another assay deals with Mus musculus. The assay can be described thus: Compound was tested for inhibitory activity in oral mouse cholesterol biosynthesis assay at the dose of 24 mg/Kg. The assay is classed as functional.
In the case of `C=C(CCC12OC(C(=O)OCCC(C)C)C(O)(C(=O)OCCCCCCCC)C(C(=O)O)(O1)[C@H](OC(=O)/C=C/[C@@H](C)C[C@@H](C)CC)[C@H]2O)[C@@H](OC(C)=O)[C@H](C)Cc1ccccc1` (some centres undefined), at 24 mg/kg the inhibition in vivo was 5%.
`C=C(CCC12OC(C(=O)OCCC(C)C)C(O)(C(=O)OCc3ccccc3)C(C(=O)O)(O1)[C@H](OC(=O)/C=C/[C@@H](C)C[C@@H](C)CC)[C@H]2O)[C@@H](OC(C)=O)[C@H](C)Cc1ccccc1` (some centres undefined) displayed an inhibition in vivo at 24 mg/kg of 50%.
In turn, `C=C(CCC12OC(C(=O)OCCC(C)C)C(O)(C(=O)OCC(=O)OC)C(C(=O)O)(O1)[C@H](OC(=O)/C=C/[C@@H](C)C[C@@H](C)CC)[C@H]2O)[C@@H](OC(C)=O)[C@H](C)Cc1ccccc1` (some centres undefined) came in with an inhibition in vivo at 24 mg/kg of 43%.
Regarding `C=C(CCC12OC(C(=O)OCCC(C)C)C(O)(C(=O)OCCOC)C(C(=O)O)(O1)[C@H](OC(=O)/C=C/[C@@H](C)C[C@@H](C)CC)[C@H]2O)[C@@H](OC(C)=O)[C@H](C)Cc1ccccc1` (some centres undefined), 24 mg/kg produced 55% inhibition in vivo.
For `C=CCOC(=O)C1(O)C(C(=O)OCCC(C)C)OC2(CCC(=C)[C@@H](OC(C)=O)[C@H](C)Cc3ccccc3)OC1(C(=O)O)[C@H](OC(=O)/C=C/[C@@H](C)C[C@@H](C)CC)[C@H]2O` (some centres undefined), testing at 24 mg/kg gave an inhibition in vivo of 38%.
For `C=C(CCC12OC(C(=O)OCCC(C)C)C(O)(C(=O)OCC(=O)c3ccc(Br)cc3)C(C(=O)O)(O1)[C@H](OC(=O)/C=C/[C@@H](C)C[C@@H](C)CC)[C@H]2O)[C@@H](OC(C)=O)[C@H](C)Cc1ccccc1` (some centres undefined), the inhibition in vivo at 24 mg/kg was 7%.
In turn, `C=C(CCC12OC(C(=O)OCCC(C)C)C(O)(C(=O)OCC)C(C(=O)O)(O1)[C@H](OC(=O)/C=C/[C@@H](C)C[C@@H](C)CC)[C@H]2O)[C@@H](OC(C)=O)[C@H](C)Cc1ccccc1` (some centres undefined) returned an inhibition in vivo at 24 mg/kg of 59%.
On the same count and under the same terms, with `C=C(CCC12OC(C(=O)OCCC(C)C)C(O)(C(=O)OCC(=O)N(CC)CC)C(C(=O)O)(O1)[C@H](OC(=O)/C=C/[C@@H](C)C[C@@H](C)CC)[C@H]2O)[C@@H](OC(C)=O)[C@H](C)Cc1ccccc1` (some centres undefined) the figure was 15%; with `C=C(CCC12OC(C(=O)OCCC(C)C)C(O)(C(=O)OCC(=O)N(C)C)C(C(=O)O)(O1)[C@H](OC(=O)/C=C/[C@@H](C)C[C@@H](C)CC)[C@H]2O)[C@@H](OC(C)=O)[C@H](C)Cc1ccccc1` (some centres undefined), 12%.

The next assay is filed under the species Mus musculus. The assay can be described thus: Compound was tested for inhibitory activity in oral mouse cholesterol biosynthesis assay. The assay is classed as functional.
For the compound `C=C(CCC12OC(C(=O)OCCC(C)C)C(O)(C(=O)OCOC(C)=O)C(C(=O)O)(O1)[C@H](OC(=O)/C=C/[C@@H](C)C[C@@H](C)CC)[C@H]2O)[C@@H](OC(C)=O)[C@H](C)Cc1ccccc1` (some centres undefined), the ED50 (as a rule, the dose at which the effect has come halfway, by size or by number of responders) was 6 mg/kg.
For `C=C(CCC12OC(C(=O)OCCC(C)C)C(O)(C(=O)OCOC(=O)C(C)(C)C)C(C(=O)O)(O1)[C@H](OC(=O)/C=C/[C@@H](C)C[C@@H](C)CC)[C@H]2O)[C@@H](OC(C)=O)[C@H](C)Cc1ccccc1` (some centres undefined), the ED50 is 9 mg/kg.
On to `C=C(CCC12OC(C(=O)OCCC(C)C)C(O)(C(=O)OC)C(C(=O)O)(O1)[C@H](OC(=O)/C=C/[C@@H](C)C[C@@H](C)CC)[C@H]2O)[C@@H](OC(C)=O)[C@H](C)Cc1ccccc1` (some centres undefined), for which it took a dose of 20 mg/kg to reach the 50% effect level (ED50).
On the same count and under the same terms, under `C=C(CCC12OC(C(=O)O)C(O)(C(=O)O)C(C(=O)O)(O1)[C@H](OC(=O)/C=C/[C@@H](C)C[C@@H](C)CC)[C@H]2O)[C@@H](OC(C)=O)[C@H](C)Cc1ccccc1` (some centres undefined) [ZARAGOZIC ACID A] stands 100 mg/kg.
